pIC50: −log10 of the molar value. Where two headings read alike, the source gives them in different places.
Columns and labels:
PARP domain of TNKS2 = molecular target: T1, PARP domain of TNKS2 (Homo sapiens, UniProt Q9H2K2); experiment: In vitro PARP assay, IC50 on TNKS2 (this study); type: biochemical; settings: values from this study
T1 construct: His6; made in house; host or cells: Escherichia coli BL-21(DE3) RIPL
Experimental: Purified PARP domain of TNKS2 and either BSA or recombinant full-length 3BP2 protein were incubated in PARP reaction buffer (50 mM Tris pH 8.0, 4 mM MgCl2, 0.2 mM dithiothreitol) containing 0.5 mM NAD^+ as an exogenous source of ADP-ribose for 30 min at 25°C with or without PARP inhibitors. Reactions were stopped by adding sample buffer to the tubes. Samples were boiled and separated on a 4–20% SDS–PAGE gel. The gel was stained with Coomassie Blue, dried on a gel dryer and used for autoradiography analysis (Fig. 2 ▶).

PARP1 = test system: PARP1; parameters: method as in not given; settings: cited from earlier work
PARP2 = test system: PARP2; parameters: method as in not given; settings: IC50 values available from the literature; ref not given; cited from earlier work
TNKS2 = test system: TNKS2; parameters: method as in not given; settings: IC50 values available from the literature; ref not given; cited from earlier work
TNKS1 = test system: TNKS1; parameters: method as in not given; settings: IC50 values available from the literature; ref not given; cited from earlier work
[1] = IC50 values available from the literature, ref not given

T1 sequence (Q9H2K2 959-1164): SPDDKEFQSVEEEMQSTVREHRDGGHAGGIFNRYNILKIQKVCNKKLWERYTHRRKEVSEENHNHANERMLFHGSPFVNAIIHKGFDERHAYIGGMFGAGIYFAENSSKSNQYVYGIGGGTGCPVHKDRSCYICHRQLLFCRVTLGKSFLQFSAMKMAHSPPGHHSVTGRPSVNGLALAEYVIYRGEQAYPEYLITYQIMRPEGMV

SMILES: Oc1cccc2c(O)nccc12 [1,5-IQD, 1,5-Isoquinolinediol]
- pIC50 (PARP domain of TNKS2): 5.82

SMILES: NC(=O)c1cccc2ncc(-c3ccc(Cl)cc3)nc12 [3,4-CPQ-5C, 3-(4-Chlorophenyl)-quinoxaline-5-carboxamide]
- pIC50 (PARP domain of TNKS2): 5.44

SMILES: NC(=O)c1cccc(N)c1 [3-AB, 3-Amino-benzamide]
- pIC50 (PARP domain of TNKS2): < 4.52
- pIC50 (PARP1; [1]): 4.48

SMILES: Nc1cccc2c(=O)[nH]ccc12 [5-AIQ, 5-Aminoisoquinolinone]
- pIC50 (PARP domain of TNKS2): 5.00
- pIC50 (PARP1): 6.60

SMILES: NC(=O)c1ccc(I)c([N+](=O)[O-])c1 [BSI-201, 4-Iodo-3-nitrobenzamide]
- pIC50 (PARP domain of TNKS2): 6.38

SMILES: O=C1NCCc2c(OCCCCN3CCCCC3)cccc21 [DPQ]
- pIC50 (PARP domain of TNKS2): 5.55
- pIC50 (PARP1): 7.64
- pIC50 (TNKS1): 7.48

SMILES: Cc1nc2c(c(=O)[nH]1)CSCC2 [DR-2313, 2-Methyl-3,5,7,8-tetrahydro-4H-thiopyrano[4,3-d]pyrimidin-4-one]
- pIC50 (PARP2): 6.62
- pIC50 (PARP domain of TNKS2): 5.52

SMILES: Nc1ccc2oc(=O)ccc2c1I [INH2BP, 5-Iodo-6-amino-1,2-benzopyrone]
- pIC50 (PARP2): 5.32
- pIC50 (PARP1; [1]): 5.29

SMILES: Cc1nc2c(O)cccc2c(=O)[nH]1 [NU-1025, 8-Hydroxy-2-methyl-3-hydro-quinazolin-4-one]
- pIC50 (PARP1; [1]): 6.40
